The target of assay [1] is T1, Vasoactive intestinal polypeptide receptor 2 (Homo sapiens) (UniProt P41587).
T1 sequence (whole entry): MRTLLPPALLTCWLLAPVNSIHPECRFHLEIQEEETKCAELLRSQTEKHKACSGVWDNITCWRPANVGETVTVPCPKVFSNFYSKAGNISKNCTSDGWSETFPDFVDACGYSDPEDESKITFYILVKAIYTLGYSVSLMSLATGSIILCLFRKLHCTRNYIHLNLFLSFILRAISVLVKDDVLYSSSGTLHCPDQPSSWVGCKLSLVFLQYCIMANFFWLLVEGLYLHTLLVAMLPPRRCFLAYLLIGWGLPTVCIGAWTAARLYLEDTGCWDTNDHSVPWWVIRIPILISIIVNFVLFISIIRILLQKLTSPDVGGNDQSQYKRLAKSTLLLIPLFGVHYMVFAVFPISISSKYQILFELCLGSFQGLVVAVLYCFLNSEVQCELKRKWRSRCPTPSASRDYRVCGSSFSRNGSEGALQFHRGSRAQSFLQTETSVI
Put plainly: Antagonist activity at recombinant human N-terminal signal peptide/FLAG epitope-tagged Rluc8-fused VIPR2 expressed in HEK293 cells assessed as inhibition of VIP-induced human mVenus-beta-arrestin2 binding at 1 uM preincubated for 5 mins with luciferin, coelenterazine H followed by VIP addition measured after 5 mins by BRET assay relative to control. The class given is cell-based. (In BRET a luciferase serves as donor, and the signal depends on an acceptor being close.)

Assay [2] addresses T1, Vasoactive intestinal polypeptide receptor 2 (Homo sapiens). Put plainly: Antagonist activity at recombinant human N-terminal signal peptide/FLAG epitope-tagged Rluc8-fused VIPR2 expressed in HEK293 cells assessed as inhibition of VIP-induced human mVenus-beta-arrestin2 binding at 5 uM preincubated for 5 mins with luciferin, coelenterazine H followed by VIP addition measured after 5 mins by BRET assay relative to control. The class given is cell-based.

Assay [3] has the same target. Put plainly: Antagonist activity at recombinant human N-terminal signal peptide/FLAG epitope-tagged VIPR2 expressed in HEK293 cells co-expressing CAMYEL assessed as inhibition of VIP-induced cAMP accumulation at 5 uM preincubated for 5 mins with luciferin, coelenterazine H followed by VIP addition measured after 5 mins by BRET assay relative to control. The class given is functional, cell-based.

Assay [4] shares this target. Put plainly: Antagonist activity at recombinant human N-terminal signal peptide/FLAG epitope-tagged Rluc8-fused VIPR2 expressed in HEK293 cells assessed as inhibition of VIP-induced human mVenus-beta-arrestin2 binding at 0.5 uM preincubated for 5 mins with luciferin, coelenterazine H followed by VIP addition measured after 5 mins by BRET assay relative to control. The class given is cell-based.

Assay [5] shares this target. Nature of the assay: Antagonist activity at recombinant human N-terminal signal peptide/FLAG epitope-tagged VIPR2 expressed in HEK293 cells co-expressing CAMYEL assessed as inhibition of VIP-induced cAMP accumulation at 0.5 uM preincubated for 5 mins with luciferin, coelenterazine H followed by VIP addition measured after 5 mins by BRET assay relative to control. The assay is classed as functional, cell-based. In general terms: Cyclic AMP is a second messenger, typically raised through Gs and lowered through Gi signalling.

The target is the same in assay [6]. Put plainly: Antagonist activity at recombinant human N-terminal signal peptide/FLAG epitope-tagged VIPR2 expressed in HEK293 cells co-expressing CAMYEL assessed as inhibition of VIP-induced cAMP accumulation at 1 uM preincubated for 5 mins with luciferin, coelenterazine H followed by VIP addition measured after 5 mins by BRET assay relative to control. The assay is classed as functional, cell-based.

Broadly, the inhibition is the change of the read-out against control, counted positive when it falls.

Take `CC(C)Nc1ccc(S(=O)(=O)NC[C@@H](O)C[C@@H](Cc2ccccc2)C(=O)N[C@H]2c3ccccc3C[C@H]2O)cc1`: the inhibition in assay [1] is -2%; in assay [2], 11.8%; in assay [3], 20.6%; in assay [4], 8.1 to 16.2%; in assay [5] it was 17.2%; in assay [6], 18.2%.

With `O=C(CCCCBr)NC[C@@H](O)C[C@@H](Cc1ccccc1)C(=O)N[C@H]1c2ccccc2C[C@H]1O`, the inhibition was 9.4% in assay [3], -0.6 to 1.7% in assay [4], 11.7% in assay [5] and 12.9% in assay [6].

Consider `Cc1cc(S(=O)(=O)NC[C@@H](O)C[C@@H](Cc2ccccc2)C(=O)N[C@H]2c3ccccc3C[C@H]2O)c(C)cc1Cl`, for which the inhibition in assay [1] was 30.2%; in assay [2], 0.6%; in assay [3], 41.1%; in assay [4] it was 17.6 to 20.9%; in assay [5], 20.6%; in assay [6], 21.6%.

Take `O=C(NC[C@@H](O)C[C@@H](Cc1ccccc1)C(=O)N[C@H]1c2ccccc2C[C@H]1O)c1cccnc1`: the inhibition in assay [1] is -5.7%; in assay [2] it was -6.3%; in assay [3] it was 16.4%; in assay [4], -6.8 to 5.05%; in assay [5] it was 15.2%; in assay [6] it was 13.5%.

As to `O=C([C@@H](Cc1ccccc1)C[C@H](O)CNS(=O)(=O)c1ccc([N+](=O)[O-])cc1)N1CCCCC1`, the inhibition was 9.2% in assay [1]; 14.9% in assay [2]; 9.4% in assay [3]; 9.5 to 12.2% in assay [4]; 14.2% in assay [5]; 14.2% in assay [6].

On to `O=C(NCc1ccccc1)c1ccc(S(=O)(=O)NC[C@@H](O)C[C@@H](Cc2ccccc2)C(=O)N[C@H]2c3ccccc3C[C@H]2O)cc1`, for which the inhibition in assay [1] was -2%; in assay [2] it was -7.7%; in assay [3] it was 90.5%; in assay [4], 4.8 to 41.4%; in assay [5], 25%; in assay [6], 32.3%.

Regarding `C#CCNC(=O)[C@H](Cc1ccccc1)C[C@H](O)CNS(=O)(=O)c1ccc([N+](=O)[O-])cc1`, the inhibition in assay [1] is 7.2%; in assay [2], -0.2%; in assay [3] it was 7.3%; in assay [4], 3.55 to 9.4%; in assay [5] it was 5.4%; in assay [6] it was 7.8%.

Consider `CC(=O)Nc1ccc(S(=O)(=O)NC[C@H](C[C@@H](Cc2ccccc2)C(=O)N[C@H]2c3ccccc3C[C@H]2O)OC(C)=O)cc1`, for which the inhibition in assay [1] was -1.8%; in assay [2] it was 10.5%; in assay [3], 3%; in assay [4], -9.8 to 6.75%; in assay [5], -4.3%; in assay [6], 32.3%.

In the case of `O=C(NCc1ccc(F)cc1F)[C@H](Cc1ccccc1)C[C@H](O)CNS(=O)(=O)c1ccc([N+](=O)[O-])cc1`, the inhibition in assay [2] was 30.8%; in assay [3] it was 22.1 to 23.6%; in assay [5], 2.4%; in assay [6] it was 7.2 to 22.1%.

Consider `O=C(NC[C@@H](O)C[C@@H](Cc1ccccc1)C(=O)N[C@H]1c2ccccc2C[C@H]1O)c1cccc(CCl)c1`, for which the inhibition in assay [1] was 5.7%; in assay [3] it was 15.1%; in assay [4], -8.1 to 2.4%; in assay [5] it was 0.5%; in assay [6], 2.3%.

As to `O=C(N[C@H]1c2ccccc2C[C@H]1O)[C@H](Cc1ccccc1)C[C@H](O)CNS(=O)(=O)c1ccc(C(=O)N2CCCCC2)cc1`, the inhibition in assay [3] was -1.4%; in assay [4] it was -6.85 to 0%; in assay [5], -5.3%; in assay [6], -7.3%.

For the compound `C[C@H](CC(C)(C)C)NC(=O)[C@H](Cc1ccccc1)C[C@H](O)CNS(=O)(=O)c1ccc([N+](=O)[O-])cc1`, the inhibition in assay [1] was 3%; in assay [3], -0.1%; in assay [4], -5.2 to 23.3%; in assay [5], -7.9%; in assay [6], 4.4%.

As to `CO[C@@H]1Cc2ccccc2[C@@H]1NC(=O)[C@H](Cc1ccccc1)C[C@H](O)CN(C)S(=O)(=O)c1ccc([N+](=O)[O-])cc1`, the inhibition in assay [3] was 26%; in assay [4] it was 4.9 to 6.9%; in assay [5], 21.1%; in assay [6], 11.3%.

With `O=C([C@H](Cc1ccccc1)C[C@H](O)CNS(=O)(=O)c1ccc([N+](=O)[O-])cc1)N1CCC(CO)CC1`, the inhibition in assay [2] was -4.5%; in assay [3], 6.2%; in assay [4], -8.4 to 0.85%; in assay [5] it was 2.1%; in assay [6], 4.4%.

For the compound `Cc1ccc([N+](=O)[O-])cc1S(=O)(=O)NC[C@@H](O)C[C@@H](Cc1ccccc1)C(=O)N[C@H]1c2ccccc2C[C@H]1O`, the inhibition is -3.8% in assay [1]; -0.6% in assay [2]; 18.3% in assay [3]; 10.9% in assay [5]; 13.6% in assay [6].

On to `CCNC(=O)[C@H](Cc1ccccc1)C[C@H](O)CNS(=O)(=O)c1ccc([N+](=O)[O-])cc1`, for which the inhibition in assay [1] was 0.1%; in assay [3], -6.2%; in assay [4], -9.25 to 15.2%; in assay [5] it was -7.1%; in assay [6], -0.4%.

Turning to `O=C([C@H](Cc1ccccc1)C[C@H](O)CNS(=O)(=O)c1ccc([N+](=O)[O-])cc1)N1CCCCC1`, the inhibition is -2.8% in assay [2], 0.5% in assay [3], -4.8% in assay [5] and -4.8% in assay [6].

For the compound `CO[C@@H]1Cc2ccccc2[C@@H]1NC(=O)[C@H](Cc1ccccc1)C[C@H](O)CNS(=O)(=O)c1ccc([N+](=O)[O-])cc1`, the inhibition in assay [2] is -10%; in assay [3] it was 5.9%; in assay [4], -7.1 to -2.05%; in assay [5] it was 15.7%; in assay [6], 5.9%.

As to `O=C([C@@H](Cc1ccccc1)C[C@H](O)CNS(=O)(=O)c1ccc([N+](=O)[O-])cc1)N1CCOCC1`, the inhibition in assay [2] was 0.3%; in assay [3], 3%; in assay [4] it was 1.65 to 7%; in assay [5] it was -5.8%.

For `CCC(=O)Nc1ccc(S(=O)(=O)NC[C@@H](O)C[C@@H](Cc2ccccc2)C(=O)N[C@H]2c3ccccc3C[C@H]2O)cc1`, the inhibition is -1.2% in assay [1]; 26.9% in assay [3]; -3.4 to 8.25% in assay [4]; 0.6% in assay [5]; 1.5% in assay [6].

For `O=C(NC1CCCCCC1)[C@H](Cc1ccccc1)C[C@H](O)CNS(=O)(=O)c1ccc([N+](=O)[O-])cc1`, the inhibition in assay [1] is -5.4%; in assay [2], -2.4%; in assay [3], 12.9%; in assay [5] it was 1.7%; in assay [6], 5.6%.

As to `O=C(NC[C@@H](O)C[C@@H](Cc1ccccc1)C(=O)N[C@H]1c2ccccc2C[C@H]1O)c1ccncc1`, the inhibition in assay [1] was 10.9%; in assay [2] it was -8.8%; in assay [3], 21%; in assay [5], 14.2%; in assay [6], 19.2%.

As to `CCN(CC)C(=O)[C@@H](Cc1ccccc1)C[C@H](O)CNS(=O)(=O)c1ccc([N+](=O)[O-])cc1`, the inhibition in assay [1] was 1.2%; in assay [2], -2.7%; in assay [4] it was -6.6 to -3.6%; in assay [5], 0.5%; in assay [6] it was -8.4%.

For `CC(C)C(=O)NC[C@@H](O)C[C@@H](Cc1ccccc1)C(=O)N[C@H]1c2ccccc2C[C@H]1O`, the values for the inhibition in assay [3], in assay [5] and in assay [6] were -0.9%, 0.7% and 2.6%, respectively.

On to `CCNC(=O)[C@@H](Cc1ccccc1)C[C@H](O)CNS(=O)(=O)c1ccc([N+](=O)[O-])cc1`, for which the inhibition was 6% in assay [1], -7.6% in assay [2], -10 to 14.9% in assay [4] and -0.9% in assay [6].

In the case of `NC(=O)[C@H](Cc1ccccc1)C[C@H](O)CNS(=O)(=O)c1ccc([N+](=O)[O-])cc1`, the inhibition was 2.1% in assay [3], -6.5 to 10.4% in assay [4], 6.7% in assay [5] and 3.6% in assay [6].

For the origin of these results see ChEMBL document CHEMBL3879914, “Inhibitors of central nervous system vasoactive inhibitory peptide receptor 2” (2014).
